# Patent US4079140A, “Benzothienyl aminoethyl ketones and their application in therapeutics” (Innothera, priority 1975, dated 1978)
# Values joined by “and” are separate entries in the source; they are usually repeats but may differ in a detail not shown here. Equal values may be shown once. Where a name gives a salt, the structure may show the parent alone. Read-outs that look alike come from different tables or passages of the source.
# Key:
# [1] = system: isolated heart of a guinea-pig; assay: Vasodilatatory activity, coronary flow of isolated perfused heart; conditions: for activation at 10 µg/mL: Cavia porcellus, compound 1 × 10^-5 g/ml, Locke solution, 37° C, at climax of activity, read-out: P (X): percentage of coronary flow increase; for ratio P (X)/P (R): X and Dipyridamole both 1 × 10^-5 g/ml, head is drawing 21
# Protocol: The percentage of flow increase (P) is calculated at the climax of the activity of X or R.
# human blood-plaques = assay: Blood-plaque aggregation inhibition in B.P.R.P. (D.P.A., adrenaline, collagene); conditions: for a(X): blood-plaque aggregation inhibiting activity, D.P.A. / a(X): blood-plaque aggregation inhibiting activity, Adrenaline: compound 2.5 × 10^-5 g/ml; for ratio of activities a(X)/a(R), D.P.A. / ratio of activities a(X)/a(R), Adrenaline: X 2.5 × 10^-5 g/ml vs Dipyridamole 5 × 10^-4 g/ml; for ratio of activities a(X)/a(R), D.P.A.: head is drawing 13; for ratio of activities a(X)/a(R), Adrenaline: head is drawing 15; for a(X): blood-plaque aggregation inhibiting activity, Collagene: compound 2 × 10^-5 g/ml; for ratio of activities a(X)/a(R), Collagene: X 2 × 10^-5 g/ml vs Dipyridamole 2 × 10^-4 g/ml, head is drawing 16
# [2] = Acute oral toxicity (LD 50), Miller and Tainter; conditions: mouse, in vivo; for LD50 at 168 h: mice deprived of food 18 hours, oral (esophageal probe), mortality followed seven days, read-out: LD 50 (50% lethal dose)
# Protocol: Acute toxicity of compounds of formula (I) was measured orally (esophageal probe) on mice deprived of food 18 hours before the beginning of the test. The products were suspended in a solution of dilute carboxymethyl cellulose. Calculation of the 50% lethal dose was carried out according to the method of Miller and Tainter (Miller L. C., Tainter M. L., proc. Soc. Exptl. Biol. Med. 1944, 57, 261-264).
# The mortality rate was checked for seven days following the treatment.
# [3] = system: phenylparaquinone (P.P.Q.) painful syndrome in mouse; assay: Analgesic and anti-inflammatory activity (P.P.Q. painful syndrome); assay type: in vivo; conditions: for a (X): percentage activity, P.P.Q.: 50 mg/kg digestively; for ratio of activity of X in relation to R, P.P.Q.: X 50 mg/kg vs Glafenine 25 mg/kg, 0.5 = half the activity of reference, head is drawing 19
# Protocol: The intraperitoneal injection of phenylparaquinone (P.P.Q.) to a mouse causes the appearance of a painful syndrome appearing within 5 minutes of the injection and disappearing after about 30 minutes (Siegmund E. A., Cadmus A., Lu G., J. Pharmacol. Exp. Therap. 1957, 119, 453).
# This painful syndrome manifests itself in the animal by a series of characteristic crises more or less close together and fleeting, during which can be noted a twisting or stretching of the body, a hollowing of the sides and a stretching of the hind legs.
# It is then possible to note the number of crises in a given interval of time.
# The preventive administration of analgesic or anti-inflammatory substances prevents the appearance of the crises and reduces the frequence thereof.
# The reference substance used in the tests (R) is the ester of N-(7-chloro-4-quinolyl) anthrilic acid and 2,3-dihydroxy n. propanol (known under the trademark "Glafenine").
# It is administered orally as a dose of 25 mg/kg.
# The compounds of formula I (X) were administered digestively as a dose of 50 mg/kg.
# The interval of time (t) chosen for calculating the analgesic activity was between 10 and 15 minutes after injection of P.P.Q. which is the period of maximum frequency of the crises. This activity was expressed in the following manner;
# n: the number of crises observed in controle mice;
# n': the number of crises observed in mice previously treated with the reference substance (R);
# n": the number of crises observed in mice having received substance (X)
# The percentage activity of R is equal to: [formula] The percentage activity of X is equal to: [formula] The activity of X in relation to R is estimated by the ratio: [formula]
# rat's isolated duodenum = assay: Spasmolytic activity on isolated duodenum, barium chloride contraction (Magnus); conditions: for relative activity, ratio of ED 50 (papaverine hydrochloride = R): 2 = twice the activity of papaverine hydrochloride, head is drawing 18; for IC50: Rattus norvegicus
# Protocol: Spasmolytic activity was studied on a rat's isolated duodenum maintained in a survival medium of an aerated Tyrode solution heated to 38° C, according to the technique of Magnus (Magnus R. -- Archiv. ges. Physiol., 1905, 180, 1-71).
# The contracting agent was barium chloride, the reference antagonist agent being papaverine hydrochloride (R). The average activity of compounds of formula I (X) compared to that of the reference agent were expressed by calculating the ratio of 50 efficient doses (ED 50) determined graphically on logarithmic paper: [formula]
# For example: a substance having a relative activity expressed by the figure 2 has an activity equal to twice that of papaverine hydrochloride.
# [4] = crises 10 to 15 minutes after P.P.Q.
# [5] = barium chloride contraction, Tyrode solution, 38° C, read-out: ED 50 (X), spasmolytic activity
Compound,"ratio of activities a(X)/a(R), D.P.A. (human blood-plaques)","a(X): blood-plaque aggregation inhibiting activity, Adrenaline (human blood-plaques; adrenaline-induced)","ratio of activities a(X)/a(R), Adrenaline (human blood-plaques)","a(X): blood-plaque aggregation inhibiting activity, Collagene (human blood-plaques; collagene-induced)","ratio of activities a(X)/a(R), Collagene (human blood-plaques)",LD50 at 168 h [2],"a (X): percentage activity, P.P.Q. [3, 4]","ratio of activity of X in relation to R, P.P.Q. [3]",also measured
"O=C(CCN1CCCCCC1)c1cc2ccccc2s1 [Compound 1, 1-(benzothien-2'yl) 3-N-perhydroazepino propanone oxalate]",7.5 × 10^-1,6%,6 × 10^-2,91%,2.5,1200 mg/kg,–,–,"activation at 10 µg/mL [1]: 66%; ratio P (X)/P (R) [1]: 0.87; a(X): blood-plaque aggregation inhibiting activity, D.P.A. (human blood-plaques; D.P.A.-induced): 54%"
O=C(CCN1CCCCC1)c1cc2ccccc2s1 [Compound 4],1.2,89%,1.1,91%,2.2,> 1100 mg/kg,25%,0.33,"a(X): blood-plaque aggregation inhibiting activity, D.P.A. (human blood-plaques; D.P.A.-induced): 63%; relative activity, ratio of ED 50 (papaverine hydrochloride = R) (rat's isolated duodenum): 1.69; IC50 (rat's isolated duodenum; [5]): 3.1 µg/mL"
"OCCN(CCO)c1nc(N2CCCCC2)c2nc(N(CCO)CCO)nc(N3CCCCC3)c2n1 [Dipyridamole, reference compound]",–,–,–,–,–,–,–,–,"a(R): blood-plaque aggregation inhibiting activity of reference, D.P.A. (human blood-plaques; D.P.A.-induced, reference 5 × 10^-4 g/ml, tested beside the compound of the same line): 72% and 53%; a(R): blood-plaque aggregation inhibiting activity of reference, Adrenaline (human blood-plaques; adrenaline-induced, reference 5 × 10^-4 g/ml, tested beside the compound of the same line): 96% and 91% and 90% and 80%; a(R): blood-plaque aggregation inhibiting activity of reference, Collagene (human blood-plaques; collagene-induced, reference 2 × 10^-4 g/ml, tested beside the compound of the same line): 36% and 42% and 67%; LD50 ([2]; po, reference product of the aggregation test, source of value not given): 2150 mg/kg"
CN(C)CCC(=O)c1cc2ccccc2s1 [Compound 2],1.4,98%,1,74%,1.75,960 mg/kg,36%,0.51,"activation at 10 µg/mL [1]: 64%; ratio P (X)/P (R) [1]: 0.4; relative activity, ratio of ED 50 (papaverine hydrochloride = R) (rat's isolated duodenum): 2.64; IC50 (rat's isolated duodenum; [5]): 1.6 µg/mL"
"O=C(OCC(O)CO)c1ccccc1Nc1ccnc2cc(Cl)ccc12 (stereo not shown) [Glafenine, ester of N-(7-chloro-4-quinolyl) anthrilic acid and 2,3-dihydroxy n. propanol, reference compound]",–,–,–,–,–,–,–,–,"a (R): percentage activity of reference, P.P.Q. ([3]; 25 mg/kg orally, crises 10 to 15 minutes after P.P.Q., tested beside the compound of the same line): 71% and 77% and 75%"
C=CCN(CC=C)CCC(=O)c1cc2ccccc2s1 [Compound 3],–,64%,7 × 10^-1,17%,2.5 × 10^-1,1000 mg/kg,58%,0.75,–
"COc1ccc(Cc2nccc3cc(OC)c(OC)cc23)cc1OC [papaverine hydrochloride, reference compound]",–,–,–,–,–,–,–,–,"IC50 (rat's isolated duodenum; read-out: ED 50 (R), spasmolytic activity of reference, barium chloride contraction, Tyrode solution, 38° C, tested beside the compound of the same line): 4.25 µg/mL"
O=C(CCN1CCOCC1)c1cc2ccccc2s1 [Compound 5],–,44%,4.6 × 10^-1,45%,1.25,> 1100 mg/kg,54%,0.76,–
